Where two headings read alike, the source gives them in different places.

Test [1] concerns the target T1, mGlu7/Elfn1 (Rattus norvegicus, UniProt P35400).
T1 construct: expressed in transfected cells; host or cells: HEK293A mGlu7/GIRK cells cocultured with HEK293A polyclonal cells stably expressing Elfn1-Myc (pcDNA3)
As to the kind of experiment: Thallium flux assay, mGlu7/GIRK HEK293 cells cocultured with Elfn1-expressing cells. It is filed as cell-based, mouse Elfn1. As to conditions: for baseline Resp ± SEM, Elfn1 / Maximal Resp ± SEM, Elfn1 / % inhibition Resp ± SEM, Elfn1: 10 μM compound; for baseline Resp ± SEM, Elfn1: average response at bottom three L-AP4 concentrations, Percent L-AP4/pcDNA/DMSO Max; for Maximal Resp ± SEM, Elfn1: average response at top two L-AP4 concentrations, normalized to L-AP4 max with pcDNA/DMSO; for % inhibition Resp ± SEM, Elfn1: of maximal L-AP4 response; for IC50: compound concentration-response in presence of 600 μM L-AP4 (EC80), read-out: compound pIC50 ± SEM, Elfn1 (converted); for compound Min Resp ± SEM, Elfn1: minimal curve fit response, 600 μM L-AP4, maximal inhibition at 30 μM compound, normalized to account for lower agonist max with Elfn1; for Emax: HEK293, read-out: PAM Maximal response, Elfn1; for Fold potentiation, Elfn1: fold potentiation of an EC20 concentration of L-AP4. The source says:
(§1) We began our evaluation of mGlu7 ligands in the presence and absence of Elfn1 by using a coculture system as previously described , with several modifications (Figure ). Cells expressing rat mGlu7 and coexpressing G protein inwardly rectifying potassium (GIRK) channels 1 and 2 were cocultured with cells expressing either an empty pcDNA3 vector control or a plasmid containing Elfn1 in the pcDNA3 backbone. We then evaluated the activity of the orthosteric agonist L-AP4 and measured effects on maximal response and pEC50. All responses were normalized to the maximal effect of L-AP4 in the presence of the pcDNA3 control plasmid.
(§2) 2 Assay design and workflow. (Left panel) Cells expressing rat mGlu7/GIRK (pink) were cocultured with pcDNA3 (blue) or Elfn1 (purple). […] (Right panel) The effect on the concentration–response curve in the presence (purple) or absence (blue) of Elfn1 can be seen by a change in efficacy, potency, and/or basal response.
HEK293A polyclonal cells stably expressing either Elfn1 or empty vector were passaged in media (Dulbecco’s modified Eagle medium (DMEM), supplemented with 10% fetal bovine serum (FBS), 20 mM N-(2-hydroxyethyl)-piperazine-N′-ethanesulfonic acid (HEPES), 1 mM Na pyruvate, 2 mM Glutamax, 0.1 mM nonessential amino acids, 1× antibiotic/antimycotic) under G418 (700 μg/mL) selection to maintain expression.
(§3) HEK293A cells stably expressing mouse Elfn1 or pcDNA3 were maintained in growth medium containing 90% Dulbecco’s Modified Eagle Media (DMEM), 10% fetal bovine serum (FBS), 100 units/mL penicillin/streptomycin, 20 mM HEPES, 1 mM sodium pyruvate, 2 mM L-glutamine, 1× nonessential amino acids, and 700 μg/mL G418 sulfate. HEK mGlu7/GIRK cells were maintained in a growth medium with 90% DMEM/F12, 10% dialyzed FBS, 100 units/mL penicillin/streptomycin, 20 mM HEPES, 1 mM sodium pyruvate, 2 mM L-glutamine, 1× nonessential amino acids, 700 μg/mL G418 sulfate, and 600 ng/mL puromycin. All cell culture reagents were purchased from Invitrogen (Carlsbad, CA).
(§4) Thallium flux assays were performed as previously described. A mixture of HEK293A mGlu7/GIRK cells and pcDNA3 or Elfn1-expressing HEK293A cells (5000/15,000 cells/20 μL/well for agonist and PAM experiments; 7500/15,000 cells/20 μL/well for NAM experiments) was seeded in 384-well, amine-coated assay plates (Greiner Bio-One, Monroe, NC). Cells were incubated overnight in a humidified 5% CO2 cell culture incubator at 37 °C. […] Following a 1 h incubation at room temperature, the dye loading solution was replaced with 20 μL/well assay buffer and the plates were loaded into a Hamamatsu FDSS 7000 (Bridgewater, NJ). Data were acquired at 1 Hz (excitation 470 ± 20 nm, emission 540 ± 30 nm) for 10 s, followed by the addition of 20 μL/well of 10 μM NAM/PAM/DMSO, followed by an additional 4 min of data collection. […] Thallium flux data were analyzed by first dividing each point in each wave by the first point in that wave and then subtracting the average of the vehicle control response. The slopes of these vehicle control-subtracted waves were calculated over ten data points beginning 2 s after thallium stimulus addition and fit to a three-parameter logistic equation in GraphPad Prism (La Jolla, CA). In most cases, the final data were normalized to the response of the mGlu7/pcDNA3 with vehicle and 5 mM L-AP4 unless otherwise noted. Potency (pEC50) and maximum responses (E max) induced by compounds were determined using a four-parameter logistical equation in Prism.

The target in test [2] is T2, rat mGlu7 (Rattus norvegicus, UniProt P35400).
T2 construct: expressed in transfected cells; host or cells: HEK293A cells stably expressing mGlu7 and GIRK1/2
T2 sequence (P35400 35-915): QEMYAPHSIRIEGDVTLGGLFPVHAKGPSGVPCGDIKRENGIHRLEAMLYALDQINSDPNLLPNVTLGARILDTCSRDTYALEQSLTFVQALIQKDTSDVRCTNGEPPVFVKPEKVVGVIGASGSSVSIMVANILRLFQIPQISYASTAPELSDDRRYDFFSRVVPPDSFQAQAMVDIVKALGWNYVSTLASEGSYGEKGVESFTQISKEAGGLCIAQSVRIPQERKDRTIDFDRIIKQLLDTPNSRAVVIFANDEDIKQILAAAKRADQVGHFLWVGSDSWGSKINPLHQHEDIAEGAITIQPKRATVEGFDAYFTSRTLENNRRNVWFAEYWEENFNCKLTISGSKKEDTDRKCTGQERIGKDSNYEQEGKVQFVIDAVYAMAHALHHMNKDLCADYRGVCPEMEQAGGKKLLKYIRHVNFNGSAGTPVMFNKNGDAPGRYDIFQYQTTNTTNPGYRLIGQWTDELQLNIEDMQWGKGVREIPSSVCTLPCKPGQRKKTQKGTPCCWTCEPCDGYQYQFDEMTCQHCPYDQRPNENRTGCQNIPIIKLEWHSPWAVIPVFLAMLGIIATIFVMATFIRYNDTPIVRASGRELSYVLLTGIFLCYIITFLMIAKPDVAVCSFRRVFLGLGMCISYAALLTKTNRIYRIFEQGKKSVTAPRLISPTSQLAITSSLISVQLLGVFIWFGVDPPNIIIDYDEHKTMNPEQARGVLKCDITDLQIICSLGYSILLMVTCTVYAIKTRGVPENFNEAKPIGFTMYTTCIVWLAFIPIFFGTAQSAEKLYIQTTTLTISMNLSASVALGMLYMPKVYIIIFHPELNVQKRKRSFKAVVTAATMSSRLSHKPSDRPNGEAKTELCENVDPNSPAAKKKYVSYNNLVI
The test can be described thus: Thallium flux assay, mGlu7/GIRK HEK293 cells cocultured with pcDNA3 vector control cells. The test is classed as cell-based. The following applies: for baseline Resp ± SEM, pcDNA / Maximal Resp ± SEM, pcDNA / response below baseline at inactive L-AP4 concentrations / % inhibition Resp ± SEM, pcDNA: 10 μM compound; for baseline Resp ± SEM, pcDNA: average response at bottom three L-AP4 concentrations, Percent L-AP4/pcDNA/DMSO Max; for Maximal Resp ± SEM, pcDNA: average response at top two L-AP4 concentrations, normalized to L-AP4 max with pcDNA/DMSO; for response below baseline at inactive L-AP4 concentrations: observed regardless of the presence of Elfn1; for % inhibition Resp ± SEM, pcDNA: of maximal L-AP4 response; for IC50: compound concentration-response in presence of 600 μM L-AP4 (EC80), read-out: compound pIC50 ± SEM, pcDNA (converted); for compound Min Resp ± SEM, pcDNA: minimal curve fit response, 600 μM L-AP4, maximal inhibition at 30 μM compound, normalized to 600 μM L-AP4 response; for Emax: HEK293, read-out: PAM Maximal response, pcDNA; for Emax / EC50: PAM concentration-response at an EC20 concentration of L-AP4; for Fold potentiation, pcDNA: fold potentiation of an EC20 concentration of L-AP4.
Excerpt: as §1, §2, §3
as §4, with “NJ).” for “NJ). Data were acquired at 1 Hz (excitation 470 ± 20 nm, emission 540 ± 30 nm) for 10 s, followed by the addition of 20 μL/well of 10 μM NAM/PAM/DMSO, followed by an additional 4 min of data collection.”, “Prism. Basal activity was calculated with data points at the three lowest test concentrations. Maximum activity was calculated with data points at two highest concentrations. All experiments were replicated at least three times in duplicate or triplicate.” for “Prism.”

Where [3] appears, read: 10 μM PAM, L-AP4 CRC, normalized to percent L-AP4 response with pcDNA and DMSO.
The mark [4] stands for this setting: PAM concentration-response at an EC20 concentration of L-AP4.
The mark [5] stands for this setting: 10 μM NAM, three lowest L-AP4 concentrations, normalized to mGlu7/pcDNA3 vehicle L-AP4 max.

T1 sequence (P35400 35-915): as above
T1 sequence (Q8C8T7 26-828 partner): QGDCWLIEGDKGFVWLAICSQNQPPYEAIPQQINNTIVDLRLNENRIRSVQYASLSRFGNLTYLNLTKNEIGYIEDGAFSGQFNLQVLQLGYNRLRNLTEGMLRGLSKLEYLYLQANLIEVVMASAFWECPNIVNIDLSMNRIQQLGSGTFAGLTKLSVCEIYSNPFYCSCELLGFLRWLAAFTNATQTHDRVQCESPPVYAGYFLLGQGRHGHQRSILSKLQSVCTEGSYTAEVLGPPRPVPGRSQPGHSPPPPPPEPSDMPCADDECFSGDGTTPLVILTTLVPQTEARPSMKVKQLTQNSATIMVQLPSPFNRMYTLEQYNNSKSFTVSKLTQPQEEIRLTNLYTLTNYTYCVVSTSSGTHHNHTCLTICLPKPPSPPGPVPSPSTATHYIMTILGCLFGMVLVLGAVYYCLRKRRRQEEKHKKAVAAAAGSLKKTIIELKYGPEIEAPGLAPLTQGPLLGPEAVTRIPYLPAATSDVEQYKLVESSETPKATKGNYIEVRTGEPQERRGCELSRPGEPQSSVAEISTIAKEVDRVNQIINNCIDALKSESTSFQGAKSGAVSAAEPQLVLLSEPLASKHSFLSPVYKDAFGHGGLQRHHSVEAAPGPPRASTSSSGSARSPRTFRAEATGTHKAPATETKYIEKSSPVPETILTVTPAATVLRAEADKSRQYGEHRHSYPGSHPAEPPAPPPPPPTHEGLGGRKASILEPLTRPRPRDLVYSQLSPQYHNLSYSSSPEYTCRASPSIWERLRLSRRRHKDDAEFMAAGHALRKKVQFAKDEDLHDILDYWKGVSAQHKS

With `CCc1nc2c(o1)CC(c1ccc(C)cc1C)CC2=O` (centres unmarked) [ADX71743, reference compound], in test [1], the “baseline Resp ± SEM, Elfn1” value is given as “–12.7 ± 2.9 %”; the “Maximal Resp ± SEM, Elfn1” value was “–10.1 ± 1.7 %”; the “% inhibition Resp ± SEM, Elfn1” value is recorded as “–22.4 ± 3.4 %”; the IC50 was 141 nM. In test [1], the “compound Min Resp ± SEM, Elfn1” value was “–28.5 ± 5.5”. Besides, in test [2], the “baseline Resp ± SEM, pcDNA” value is reported as “–21.5 ± 2.0 %”; the “Maximal Resp ± SEM, pcDNA” value is given as “–0.08 ± 1.4 %”; the “response below baseline at inactive L-AP4 concentrations” value is listed as “inverse agonist activity”; the “% inhibition Resp ± SEM, pcDNA” value is listed as “–0.11 ± 1.4%”. For the same compound, in test [2], the IC50 was 195 nM and the “compound Min Resp ± SEM, pcDNA” value is “–32.9 ± 8.0”.

For `COC(=O)c1ccc(-n2c(C)cc(C(=O)CSc3ccc(NC(C)=O)cc3)c2C)cc1` [VU0155094], in test [1] (setting [3]), the “baseline response ± SEM, Elfn1” value is given as 1.0±1.7%. Moreover, the Emax was determined as 66.3 ± 3.6% in test [1] (setting [4]) and 138 ± 5.2% in test [2]. Moreover, the EC50 in test [1] (PAM concentration-response at an EC20 concentration of L-AP4, read-out: PAM pEC50, Elfn1 (converted)) is 2820 nM; in test [2] (read-out: PAM pEC50, pcDNA (converted)), 3550 nM. Moreover, the “Fold potentiation, Elfn1” value in test [1] is reported as 2.7±0.2 fold. Further, the “baseline response ± SEM, pcDNA” value in test [2] (setting [3]) came out at 6.4±2.3%. Besides, the “Fold potentiation, pcDNA” value in test [2] is given as 4.4±0.3 fold.

In the case of `COc1ccc(C(=O)Nc2cc(OC(F)(F)F)ccc2-n2cncn2)cc1OC` [VU6010608], the “baseline response ± SEM, Elfn1” value in test [1] (setting [5]) was “–9.0 ± 0.9”. Also, the “baseline response ± SEM, pcDNA” value in test [2] (setting [5]) is given as “–14.5 ± 2.6”.

On to `CCCOc1ccc(C(=O)Nc2cc(OC(F)(F)F)ccc2-n2cncn2)cc1OC` [VU6010953], for which the “baseline response ± SEM, Elfn1” value in test [1] (setting [5]) is reported as “–8.1 ± 1.1”. In addition, the “baseline response ± SEM, pcDNA” value in test [2] (setting [5]) is “–12.5 ± 2.2”.

Regarding `COc1cc(C(=O)Nc2cc(OC(F)(F)F)ccc2-n2cncn2)ccc1OCC1CC1` [VU6012962, N-(2-(1 H-1,2,4-triazol-1-yl)-5-(trifluoromethoxy)phenyl)-4-(cyclopropylmethoxy)-3-methox ybenzamide], the “baseline response ± SEM, Elfn1” value in test [1] (setting [5]) was “–8.1 ± 2.0”. The “baseline response ± SEM, pcDNA” value in test [2] (setting [5]) is “–19.1 ± 2.4”.

Regarding `COc1ccc(-c2noc(-c3cc(Cl)ccc3-n3cncn3)n2)cc1OC` [VU6017743], in test [1] (setting [5]), the “baseline response ± SEM, Elfn1” value was “–5.7 ± 5.9”. The “baseline response ± SEM, pcDNA” value in test [2] (setting [5]) is “–11.5 ± 4.7”.

For `COc1ccc(-c2cnc(-c3cc(OC(F)(F)F)ccc3-n3cncn3)o2)cc1OC` [VU6018226], in test [1] (setting [5]), the “baseline response ± SEM, Elfn1” value is on record as 0.2 ± 3.5. The “baseline response ± SEM, pcDNA” value in test [2] (setting [5]) is recorded as “–6.6 ± 1.8”.

`COc1ccc(-c2nnc(-c3cc(OC(F)(F)F)ccc3-c3cn[nH]c3)o2)cc1OC` [VU6019282]: the “baseline response ± SEM, Elfn1” value in test [1] (setting [5]) is recorded as “–0.7 ± 4.5”. Further, the “baseline response ± SEM, pcDNA” value in test [2] (setting [5]) is “–5.3 ± 3.7”.

For `COc1cc(F)cc2c(N3CCN(c4ccccc4F)CC3)c(C#N)cnc12` [VU6027459], the “baseline response ± SEM, Elfn1” value in test [1] (setting [3]) amounted to 12.5±8.4%. The Emax turned out to be 44.1 ± 4.5% in test [1] (setting [4]) and 75.8 ± 5.2% in test [2]. Besides, the EC50 in test [1] (PAM pEC50, Elfn1, PAM concentration-response at an EC20 concentration of L-AP4) was 1620 nM; in test [2] (PAM pEC50, pcDNA) it was 1000 nM. In addition, the “Fold potentiation, Elfn1” value in test [1] is reported as 2.0±0.2 fold. For the same compound, in test [2] (setting [3]), the “baseline response ± SEM, pcDNA” value is recorded as 25.6±12.0%. For the same compound, the “Fold potentiation, pcDNA” value in test [2] is reported as 3.0±0.4 fold.

With `O=c1c(Oc2ccc(I)cc2)coc2cc(O)ccc12` [XAP044, reference compound], in test [1], the “baseline Resp ± SEM, Elfn1” value is “–6.5 ± 1.3 %”; the “Maximal Resp ± SEM, Elfn1” value was “–13.2 ± 1.7 %”; the “% inhibition Resp ± SEM, Elfn1” value was “–30.4 ± 2.9 %”; the IC50 was 380 nM. For the same compound, in test [1], the “compound Min Resp ± SEM, Elfn1” value worked out at 2.5 ± 8.4. Further, in test [2], the “baseline Resp ± SEM, pcDNA” value is given as “–11.4 ± 4.8 %”; the “Maximal Resp ± SEM, pcDNA” value was 1.7 ± 3.6 %; the “response below baseline at inactive L-AP4 concentrations” value is recorded as “inverse agonist activity”; the “% inhibition Resp ± SEM, pcDNA” value was 1.6 ± 3.5%. Besides, in test [2], the IC50 is 1660 nM and the “compound Min Resp ± SEM, pcDNA” value is 6.9 ± 6.5.

For the origin of these results see article PMC12333015, “Profiling the Impact of mGlu7/Elfn1 Protein Interactions on the Pharmacology of mGlu7 Allosteric Modulators” (ACS Chemical Neuroscience, 2025).
